# According to US11000033B2, “Ketone or oxime compound, and herbicide” (NISSAN CHEMICAL CORPORATION, priority 2014, dated 2021):
# Experiments:
# Assay type in all cases: in vivo
# corn = test: Test Example 5: effect on crop by foliage application, plastic box (symbol c); settings: 320 g/ha, 3 weeks after application
# Excerpt: (§1) Herbicidal Effect Test by Foliage Application
# (§2) Sterilized diluvial soil was placed in a plastic box having a length of 21 cm, a width of 13 cm, and a depth of 7 cm. Each of the seeds of Digitaria ciliaris, Setaria viridis, Echinochloa crus-galli var. crus-galli, Avena fatua, Alopecurus myosuroides, Lolium multiflorum Lam., Apera spica-venti, Abutilon theophrasti, Amaranthus retroflexus, Chenopodium album, Stellaria media, Galium spurium, Veronica persica, corn, soybean, rice plant, wheat, beet, and rapeseed was sowed in a spot-like manner and was covered with the soil of a thickness of about 1.5 cm. Thereafter, the plants were grown in the greenhouse of 25° C. to 30° C.
# Amaranthus retroflexus = test: Test Example 5: herbicidal effect by foliage application, plastic box (symbol N); settings: 320 g/ha, 3 weeks after application
# Excerpt: as §1
# as §2, with “30° C. After the plants were grown for 14 days, the emulsion agent of the compound of the present invention prepared in accordance with Formulation Example 2 was diluted with water so as to be a predetermined herbicide amount and the diluted emulsion agent was uniformly applied to a foliage part with a small-size spray. 3 weeks later from the herbicide application, the effect to each plant was investigated in accordance with the criteria of Test Example 1.” for “30° C.”
# Digitaria ciliaris = test: Test Example 5: herbicidal effect by foliage application, plastic box (symbol F); settings: 320 g/ha, 3 weeks after application
# Excerpt: as §1
# as §2, with “30° C. After the plants were grown for 14 days, the emulsion agent of the compound of the present invention prepared in accordance with Formulation Example 2 was diluted with water so as to be a predetermined herbicide amount and the diluted emulsion agent was uniformly applied to a foliage part with a small-size spray. 3 weeks later from the herbicide application, the effect to each plant was investigated in accordance with the criteria of Test Example 1.” for “30° C.”
# [1] = test system: directly sowed rice plant; test: Test Example 3: effect on crop by foliage application, Wagner pot (symbol b); settings: application herbicide amount 320 g/ha
# Experimental: as §1
# After alluvial soil was placed into 1/10000 are of Wagner pot, water was poured and mixed to form a submerged condition having a water depth of 0.1 cm to 0.5 cm. Seeds of Echinochloa crus-galli var. crus-galli, Leptochloa chinensis, Cyperus difformis, and rice were sowed and the pot was placed in the greenhouse of 25° C. to 30° C. to grow the plants.
# Lolium multiflorum Lam. = test: Test Example 5: herbicidal effect by foliage application, plastic box (symbol K); settings: 320 g/ha, 3 weeks after application
# Excerpt: as §1
# as §2, with “30° C. After the plants were grown for 14 days, the emulsion agent of the compound of the present invention prepared in accordance with Formulation Example 2 was diluted with water so as to be a predetermined herbicide amount and the diluted emulsion agent was uniformly applied to a foliage part with a small-size spray. 3 weeks later from the herbicide application, the effect to each plant was investigated in accordance with the criteria of Test Example 1.” for “30° C.”
# beet = test: Test Example 5: effect on crop by foliage application, plastic box (symbol f); settings: 320 g/ha, 3 weeks after application
# Excerpt: as §1, §2
# Leptochloa chinensis = test: Test Example 3: herbicidal effect by foliage application, Wagner pot (symbol D); settings: application herbicide amount 320 g/ha
# Experimental: as §1
# (§3) After alluvial soil was placed into 1/10000 are of Wagner pot, water was poured and mixed to form a submerged condition having a water depth of 0.1 cm to 0.5 cm. Seeds of Echinochloa crus-galli var. crus-galli, Leptochloa chinensis, Cyperus difformis, and rice were sowed and the pot was placed in the greenhouse of 25° C. to 30° C. to grow the plants. After the plants were grown for 14 days, the emulsion agent of the compound of the present invention prepared in accordance with Formulation Example 2 was diluted with water so as to be a predetermined herbicide amount and the diluted emulsion agent was uniformly applied to a foliage part with a small-size spray. 3 weeks later from the herbicide application, the effect to each plant was investigated in accordance with the criteria of Test Example 1.
# soybean = test: Test Example 5: effect on crop by foliage application, plastic box (symbol d); settings: 320 g/ha, 3 weeks after application
# Excerpt: as §1, §2
# Apera spica-venti = test: Test Example 5: herbicidal effect by foliage application, plastic box (symbol L); settings: 320 g/ha, 3 weeks after application
# Excerpt: as §1
# as §2, with “30° C. After the plants were grown for 14 days, the emulsion agent of the compound of the present invention prepared in accordance with Formulation Example 2 was diluted with water so as to be a predetermined herbicide amount and the diluted emulsion agent was uniformly applied to a foliage part with a small-size spray. 3 weeks later from the herbicide application, the effect to each plant was investigated in accordance with the criteria of Test Example 1.” for “30° C.”
# wheat = test: Test Example 5: effect on crop by foliage application, plastic box (symbol e); settings: 320 g/ha, 3 weeks after application
# Excerpt: as §1, §2
# [2] = test system: Echinochloa crus-galli var. crus-galli; test: Test Example 3: herbicidal effect by foliage application, Wagner pot (symbol H); settings: application herbicide amount 320 g/ha
# Experimental: as §1, §3
# [3] = test system: Echinochloa crus-galli var. crus-galli; test: Test Example 5: herbicidal effect by foliage application, plastic box (symbol H); settings: 320 g/ha, 3 weeks after application
# Excerpt: as §1
# as §2, with “30° C. After the plants were grown for 14 days, the emulsion agent of the compound of the present invention prepared in accordance with Formulation Example 2 was diluted with water so as to be a predetermined herbicide amount and the diluted emulsion agent was uniformly applied to a foliage part with a small-size spray. 3 weeks later from the herbicide application, the effect to each plant was investigated in accordance with the criteria of Test Example 1.” for “30° C.”
# Setaria viridis = test: Test Example 5: herbicidal effect by foliage application, plastic box (symbol G); settings: 320 g/ha, 3 weeks after application
# Excerpt: as §1
# as §2, with “30° C. After the plants were grown for 14 days, the emulsion agent of the compound of the present invention prepared in accordance with Formulation Example 2 was diluted with water so as to be a predetermined herbicide amount and the diluted emulsion agent was uniformly applied to a foliage part with a small-size spray. 3 weeks later from the herbicide application, the effect to each plant was investigated in accordance with the criteria of Test Example 1.” for “30° C.”
# Stellaria media = test: Test Example 5: herbicidal effect by foliage application, plastic box (symbol P); settings: 320 g/ha, 3 weeks after application
# Excerpt: as §1
# as §2, with “30° C. After the plants were grown for 14 days, the emulsion agent of the compound of the present invention prepared in accordance with Formulation Example 2 was diluted with water so as to be a predetermined herbicide amount and the diluted emulsion agent was uniformly applied to a foliage part with a small-size spray. 3 weeks later from the herbicide application, the effect to each plant was investigated in accordance with the criteria of Test Example 1.” for “30° C.”
# Avena fatua = test: Test Example 5: herbicidal effect by foliage application, plastic box (symbol I); settings: 320 g/ha, 3 weeks after application
# Excerpt: as §1
# as §2, with “30° C. After the plants were grown for 14 days, the emulsion agent of the compound of the present invention prepared in accordance with Formulation Example 2 was diluted with water so as to be a predetermined herbicide amount and the diluted emulsion agent was uniformly applied to a foliage part with a small-size spray. 3 weeks later from the herbicide application, the effect to each plant was investigated in accordance with the criteria of Test Example 1.” for “30° C.”
# Galium spurium = test: Test Example 5: herbicidal effect by foliage application, plastic box (symbol Q); settings: 320 g/ha, 3 weeks after application
# Excerpt: as §1
# as §2, with “30° C. After the plants were grown for 14 days, the emulsion agent of the compound of the present invention prepared in accordance with Formulation Example 2 was diluted with water so as to be a predetermined herbicide amount and the diluted emulsion agent was uniformly applied to a foliage part with a small-size spray. 3 weeks later from the herbicide application, the effect to each plant was investigated in accordance with the criteria of Test Example 1.” for “30° C.”
# Abutilon theophrasti = test: Test Example 5: herbicidal effect by foliage application, plastic box (symbol M); settings: 320 g/ha, 3 weeks after application
# Excerpt: as §1
# as §2, with “30° C. After the plants were grown for 14 days, the emulsion agent of the compound of the present invention prepared in accordance with Formulation Example 2 was diluted with water so as to be a predetermined herbicide amount and the diluted emulsion agent was uniformly applied to a foliage part with a small-size spray. 3 weeks later from the herbicide application, the effect to each plant was investigated in accordance with the criteria of Test Example 1.” for “30° C.”
# Chenopodium album = test: Test Example 5: herbicidal effect by foliage application, plastic box (symbol O); settings: 320 g/ha, 3 weeks after application
# Excerpt: as §1
# as §2, with “30° C. After the plants were grown for 14 days, the emulsion agent of the compound of the present invention prepared in accordance with Formulation Example 2 was diluted with water so as to be a predetermined herbicide amount and the diluted emulsion agent was uniformly applied to a foliage part with a small-size spray. 3 weeks later from the herbicide application, the effect to each plant was investigated in accordance with the criteria of Test Example 1.” for “30° C.”
# Veronica persica = test: Test Example 5: herbicidal effect by foliage application, plastic box (symbol R); settings: 320 g/ha, 3 weeks after application
# Excerpt: as §1
# as §2, with “30° C. After the plants were grown for 14 days, the emulsion agent of the compound of the present invention prepared in accordance with Formulation Example 2 was diluted with water so as to be a predetermined herbicide amount and the diluted emulsion agent was uniformly applied to a foliage part with a small-size spray. 3 weeks later from the herbicide application, the effect to each plant was investigated in accordance with the criteria of Test Example 1.” for “30° C.”
# rice plant = test: Test Example 5: effect on crop by foliage application, plastic box (symbol b); settings: 320 g/ha, 3 weeks after application
# Excerpt: as §1, §2
# Alopecurus myosuroides = test: Test Example 5: herbicidal effect by foliage application, plastic box (symbol J); settings: 320 g/ha, 3 weeks after application
# Excerpt: as §1
# as §2, with “30° C. After the plants were grown for 14 days, the emulsion agent of the compound of the present invention prepared in accordance with Formulation Example 2 was diluted with water so as to be a predetermined herbicide amount and the diluted emulsion agent was uniformly applied to a foliage part with a small-size spray. 3 weeks later from the herbicide application, the effect to each plant was investigated in accordance with the criteria of Test Example 1.” for “30° C.”
# rapeseed = test: Test Example 5: effect on crop by foliage application, plastic box (symbol g); settings: 320 g/ha, 3 weeks after application
# Excerpt: as §1, §2
compound,measurement,setting,value
CON=C(C)CC1CC(O)=C(c2c(C)cc(-c3ccncc3)cc2C)C1=O (stereo not shown) [6-105],"c: corn, effect on crop (criteria of Test Example 1)",corn,3 (Herbicidal ratio of 40% or higher and lower than 70%)
same,"N: Amaranthus retroflexus, herbicidal effect (criteria of Test Example 1)",Amaranthus retroflexus,0 (Herbicidal ratio of 5% or lower (almost no effect))
same,"F: Digitaria ciliaris, herbicidal effect (criteria of Test Example 1)",Digitaria ciliaris,5 (Herbicidal ratio of 90% or more (almost completely withered))
same,"effect on crop b (directly sowed rice plant), grade 0-5",[1],4 (Herbicidal ratio of 70% or higher and lower than 90%)
same,"K: Lolium multiflorum Lam., herbicidal effect (criteria of Test Example 1)",Lolium multiflorum Lam.,4 (Herbicidal ratio of 70% or higher and lower than 90%)
same,"f: beet, effect on crop (criteria of Test Example 1)",beet,0 (Herbicidal ratio of 5% or lower (almost no effect))
same,"herbicidal effect on D (Leptochloa chinensis), grade 0-5",Leptochloa chinensis,4 (Herbicidal ratio of 70% or higher and lower than 90%)
same,"d: soybean, effect on crop (criteria of Test Example 1)",soybean,0 (Herbicidal ratio of 5% or lower (almost no effect))
same,"L: Apera spica-venti, herbicidal effect (criteria of Test Example 1)",Apera spica-venti,2 (Herbicidal ratio of 20% or higher and lower than 40%)
same,"e: wheat, effect on crop (criteria of Test Example 1)",wheat,0 (Herbicidal ratio of 5% or lower (almost no effect))
same,"herbicidal effect on H (Echinochloa crus-galli var. crus-galli), grade 0-5",[2],3 (Herbicidal ratio of 40% or higher and lower than 70%)
same,"H: Echinochloa crus-galli var. crus-galli, herbicidal effect (criteria of Test Example 1)",[3],5 (Herbicidal ratio of 90% or more (almost completely withered))
same,"G: Setaria viridis, herbicidal effect (criteria of Test Example 1)",Setaria viridis,5 (Herbicidal ratio of 90% or more (almost completely withered))
same,"P: Stellaria media, herbicidal effect (criteria of Test Example 1)",Stellaria media,0 (Herbicidal ratio of 5% or lower (almost no effect))
same,"I: Avena fatua, herbicidal effect (criteria of Test Example 1)",Avena fatua,2 (Herbicidal ratio of 20% or higher and lower than 40%)
same,"Q: Galium spurium, herbicidal effect (criteria of Test Example 1)",Galium spurium,3 (Herbicidal ratio of 40% or higher and lower than 70%)
same,"M: Abutilon theophrasti, herbicidal effect (criteria of Test Example 1)",Abutilon theophrasti,0 (Herbicidal ratio of 5% or lower (almost no effect))
same,"O: Chenopodium album, herbicidal effect (criteria of Test Example 1)",Chenopodium album,0 (Herbicidal ratio of 5% or lower (almost no effect))
same,"R: Veronica persica, herbicidal effect (criteria of Test Example 1)",Veronica persica,3 (Herbicidal ratio of 40% or higher and lower than 70%)
same,"b: directly sowed rice plant, effect on crop (criteria of Test Example 1)",rice plant,3 (Herbicidal ratio of 40% or higher and lower than 70%)
same,"J: Alopecurus myosuroides, herbicidal effect (criteria of Test Example 1)",Alopecurus myosuroides,2 (Herbicidal ratio of 20% or higher and lower than 40%)
same,"g: rapeseed, effect on crop (criteria of Test Example 1)",rapeseed,4 (Herbicidal ratio of 70% or higher and lower than 90%)
